Measurements from ChEMBL document CHEMBL1201862, “PubChem BioAssay data set” (2004).
The source made the active and inactive calls.

Legend:
[1] = biological target: T1, Polyadenylate-binding protein 1 (Homo sapiens, UniProt P11940); assay: MLLE domain peptide-binding blockers, IC50 – biochemical, fluorescence polarization, FITC-PAM2 peptide, dose response (AID 602259); format: functional; conditions: read-out: IC50_Mean
[2] = biological target: T1, Polyadenylate-binding protein 1; assay: MLLE binding blockers, Cy5 peptide tracer – biochemical, fluorescence polarization, Cy5-PAM2 peptide, secondary, miRNA deadenylation inhibitor project, dose response (AID 602260); format: functional; conditions: read-out: IC50_Mean
[3] = system: Streptococcus; assay: GAS UMAA2166 growth inhibition – luminescence, BacTiterGlo, counter-screen for streptokinase expression inhibitor project, dose response (AID 1915); format: functional, organism-based;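 note: potency for reduction of bacterial viability or growth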
[4] = system: HEK293; assay: cells; format: functional, cell-based; conditions: Homo sapiens
[5] = system: H4; assay: inhibitors of control reporter signal in H4 cells – cell-based, plate reader, dry powder samples, counter-screen for prion reporter project, dose response (AID 540255); format: functional; conditions: Homo sapiens
[6] = biological target: Heat shock protein HSP 90-alpha (Homo sapiens, UniProt P07900); format: functional, organism-based
[7] = biological target: 5-hydroxytryptamine receptor 5A (Homo sapiens, UniProt P47898); assay: Counterscreen for agonists of OPRM1-OPRD1 heterodimerization: luminescence-based cell-based high throughput dose response assay to identify agonists of 5-hydroxytryptamine (serotonin) 5A receptor (HTR5A). [Related pubchem assays (depositor defined):AID504326, AID504355, AID504692, AID504904, AID504905]; format: functional
5-hydroxytryptamine receptor 5A, sequence (P47898 whole entry): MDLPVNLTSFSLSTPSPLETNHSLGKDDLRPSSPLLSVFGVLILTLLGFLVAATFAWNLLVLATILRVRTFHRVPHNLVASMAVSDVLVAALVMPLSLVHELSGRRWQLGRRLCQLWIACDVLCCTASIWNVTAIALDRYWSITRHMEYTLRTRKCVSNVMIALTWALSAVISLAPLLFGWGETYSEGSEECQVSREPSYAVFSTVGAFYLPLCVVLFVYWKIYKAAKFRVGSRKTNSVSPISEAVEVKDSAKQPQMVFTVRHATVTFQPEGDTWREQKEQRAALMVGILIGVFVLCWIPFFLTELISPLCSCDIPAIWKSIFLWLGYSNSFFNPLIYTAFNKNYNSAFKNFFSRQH

[8] = biological target: SUMO-activating enzyme (Homo sapiens, UniProt Q9UBT2); assay: blockers of SAE1/SAE2–UBC9 SUMO transfer – biochemical, HTRF, uHTS, primary screen (AID 2006); format: protein-complex assay
SUMO-activating enzyme, sequence (Q9UBE0 whole entry, the tested form may be a part): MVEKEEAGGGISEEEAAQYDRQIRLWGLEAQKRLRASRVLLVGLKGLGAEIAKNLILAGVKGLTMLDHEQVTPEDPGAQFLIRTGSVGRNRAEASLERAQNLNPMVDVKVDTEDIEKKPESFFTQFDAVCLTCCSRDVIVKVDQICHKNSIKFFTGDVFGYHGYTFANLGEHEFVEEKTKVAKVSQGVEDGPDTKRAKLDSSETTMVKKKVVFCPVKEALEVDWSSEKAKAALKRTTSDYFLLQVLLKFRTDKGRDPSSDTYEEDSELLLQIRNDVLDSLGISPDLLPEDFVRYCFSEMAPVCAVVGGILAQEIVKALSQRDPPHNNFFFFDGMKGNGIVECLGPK
SUMO-activating enzyme, sequence (Q9UBT2 whole entry, the tested form may be a part): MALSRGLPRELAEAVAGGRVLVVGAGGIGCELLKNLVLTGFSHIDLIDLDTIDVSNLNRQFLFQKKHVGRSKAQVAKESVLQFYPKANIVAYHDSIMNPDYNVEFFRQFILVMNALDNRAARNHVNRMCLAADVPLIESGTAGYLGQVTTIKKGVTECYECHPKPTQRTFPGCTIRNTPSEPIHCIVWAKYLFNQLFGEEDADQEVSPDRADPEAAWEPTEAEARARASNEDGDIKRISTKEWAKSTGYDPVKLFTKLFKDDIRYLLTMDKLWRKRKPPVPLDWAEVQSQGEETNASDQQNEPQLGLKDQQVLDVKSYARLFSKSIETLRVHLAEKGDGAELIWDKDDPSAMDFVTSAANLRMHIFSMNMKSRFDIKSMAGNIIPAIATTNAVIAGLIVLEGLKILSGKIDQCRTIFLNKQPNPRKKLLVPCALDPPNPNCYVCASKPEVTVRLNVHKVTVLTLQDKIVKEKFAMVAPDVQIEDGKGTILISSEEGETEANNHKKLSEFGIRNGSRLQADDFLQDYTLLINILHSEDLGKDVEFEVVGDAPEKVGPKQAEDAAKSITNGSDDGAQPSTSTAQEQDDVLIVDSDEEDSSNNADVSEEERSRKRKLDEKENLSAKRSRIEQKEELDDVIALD

[9] = inhibition of ARNT PAS-B/TACC3 complex formation – biochemical, AlphaScreen, cherry-picked samples, confirmation (AID 651703); format: functional, Homo sapiens;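 note: His-tagged ARNT PAS-B domain paired with GST-TACC3 E629A dimer coactivator fragment; potency of inhibitors that break up the complex and lower AlphaScreen signal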
[10] = biological target: SUMO E1/E2 (Homo sapiens, UniProt P63279+Q9UBE0+Q9UBT2); assay: SAR analysis of SUMOylation using HTRF in an in-Vitro dose response assay. [Related pubchem assays (depositor defined):AID2006, AID2011, AID2018, AID2069, AID2658]; format: functional
SUMO E1/E2, sequence (Q9UBE0 whole entry): as the sequence (Q9UBE0 whole entry, the tested form may be a part) above
SUMO E1/E2, sequence (Q9UBT2 whole entry): as the sequence (Q9UBT2 whole entry, the tested form may be a part) above
SUMO E1/E2, sequence (P63279 whole entry): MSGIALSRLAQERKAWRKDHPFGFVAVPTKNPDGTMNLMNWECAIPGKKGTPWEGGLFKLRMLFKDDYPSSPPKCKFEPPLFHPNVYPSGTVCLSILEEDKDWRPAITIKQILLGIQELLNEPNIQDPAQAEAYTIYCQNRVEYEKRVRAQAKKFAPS

[11] = biological target: T2, Caspase-3 (Homo sapiens, UniProt P42574); format: functional
T2 sequence (P42574 whole entry): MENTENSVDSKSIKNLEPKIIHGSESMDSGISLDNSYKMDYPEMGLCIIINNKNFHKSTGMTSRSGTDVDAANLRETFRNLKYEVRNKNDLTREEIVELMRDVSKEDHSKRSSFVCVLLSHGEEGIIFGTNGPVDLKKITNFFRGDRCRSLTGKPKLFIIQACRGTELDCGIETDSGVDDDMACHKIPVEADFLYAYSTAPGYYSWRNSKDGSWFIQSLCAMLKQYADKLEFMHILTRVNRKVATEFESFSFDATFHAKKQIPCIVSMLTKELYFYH

[12] = Trypanosoma cruzi growth suppression in host cells – NIH3T3 host cells, beta-gal luminescence, confirmation (AID 2044); format: functional, cell-based;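 note: intracellular parasites grown in NIH/3T3 mouse fibroblasts as host cells; luminescent beta-galactosidase reporter signal from transgenic T. cruzi replicating inside host cells; inhibitors lower the luminescence signal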
[13] = biological target: Serine/threonine-protein phosphatase PP1-alpha catalytic subunit (Homo sapiens, UniProt P62136); assay: inhibition of protein phosphatase 1 activity – biochemical, fluorescence, dose response (AID 2394)
Serine/threonine-protein phosphatase PP1-alpha catalytic subunit, sequence (P62136 whole entry): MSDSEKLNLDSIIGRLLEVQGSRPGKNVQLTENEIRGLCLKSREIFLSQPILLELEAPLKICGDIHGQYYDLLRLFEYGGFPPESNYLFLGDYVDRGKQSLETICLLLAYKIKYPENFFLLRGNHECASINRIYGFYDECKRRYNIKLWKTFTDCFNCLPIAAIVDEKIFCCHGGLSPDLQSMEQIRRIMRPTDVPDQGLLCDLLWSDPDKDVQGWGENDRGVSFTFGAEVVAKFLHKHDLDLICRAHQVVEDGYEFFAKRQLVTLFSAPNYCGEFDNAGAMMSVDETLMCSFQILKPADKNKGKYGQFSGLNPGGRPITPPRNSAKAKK

[14] = biological target: T2, Caspase-3; assay: SAR Analysis of small molecule inhibitors of Sentrin-specific proteases (SENPs) using a Caspase-3 Selectivity assay. [Related pubchem assays (depositor defined):AID2540, AID2599, AID434973, AID489001]; format: functional
[15] = biological target: T3, Sentrin-specific protease 8 (Homo sapiens, UniProt Q96LD8); assay: inhibition of human SENP8 cleavage activity – biochemical, luminescence, SAR follow-up (AID 504501); format: functional
T3 sequence (Q96LD8 whole entry): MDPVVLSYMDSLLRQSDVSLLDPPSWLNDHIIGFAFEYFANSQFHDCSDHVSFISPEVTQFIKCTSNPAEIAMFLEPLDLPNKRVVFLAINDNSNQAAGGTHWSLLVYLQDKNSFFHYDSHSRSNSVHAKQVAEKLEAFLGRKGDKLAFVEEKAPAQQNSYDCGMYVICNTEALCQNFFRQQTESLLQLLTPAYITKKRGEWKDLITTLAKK

[16] = biological target: T4, Sentrin-specific protease 6 (Homo sapiens, UniProt Q9GZR1); assay: SAR Analysis of small molecule inhibitors of Sentrin-specific protease 6 (SENP6) using a Luminescent assay. [Related pubchem assays (depositor defined):AID2582, AID2599]; format: functional
T4 sequence (Q9GZR1 whole entry): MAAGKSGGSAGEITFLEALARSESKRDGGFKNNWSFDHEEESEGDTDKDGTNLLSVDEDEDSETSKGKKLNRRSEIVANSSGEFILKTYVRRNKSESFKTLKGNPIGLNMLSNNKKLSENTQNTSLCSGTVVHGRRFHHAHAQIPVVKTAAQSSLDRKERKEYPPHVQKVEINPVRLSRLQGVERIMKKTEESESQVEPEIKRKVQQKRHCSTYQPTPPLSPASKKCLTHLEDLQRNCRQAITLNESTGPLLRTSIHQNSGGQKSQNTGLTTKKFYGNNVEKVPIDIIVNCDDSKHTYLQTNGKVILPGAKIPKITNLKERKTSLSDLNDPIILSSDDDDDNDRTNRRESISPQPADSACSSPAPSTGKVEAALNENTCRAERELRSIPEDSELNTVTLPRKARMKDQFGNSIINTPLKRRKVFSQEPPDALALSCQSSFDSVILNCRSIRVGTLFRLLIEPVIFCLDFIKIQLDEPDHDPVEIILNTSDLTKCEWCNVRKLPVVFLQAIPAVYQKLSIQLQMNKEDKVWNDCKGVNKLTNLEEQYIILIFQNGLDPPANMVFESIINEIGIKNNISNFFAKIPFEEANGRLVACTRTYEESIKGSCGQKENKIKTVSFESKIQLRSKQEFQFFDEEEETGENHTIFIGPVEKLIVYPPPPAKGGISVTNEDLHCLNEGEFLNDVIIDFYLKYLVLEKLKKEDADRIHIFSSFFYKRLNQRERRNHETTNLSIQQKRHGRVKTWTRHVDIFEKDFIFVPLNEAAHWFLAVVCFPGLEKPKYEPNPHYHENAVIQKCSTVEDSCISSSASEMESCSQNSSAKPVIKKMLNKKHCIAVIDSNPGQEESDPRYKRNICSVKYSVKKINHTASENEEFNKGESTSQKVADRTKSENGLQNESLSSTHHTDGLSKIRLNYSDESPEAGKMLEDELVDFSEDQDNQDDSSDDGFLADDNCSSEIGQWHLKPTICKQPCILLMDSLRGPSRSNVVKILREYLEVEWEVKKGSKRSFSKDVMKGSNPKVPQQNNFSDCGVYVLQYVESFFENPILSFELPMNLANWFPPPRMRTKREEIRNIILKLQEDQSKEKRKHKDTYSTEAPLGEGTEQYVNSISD

T1 sequence (P11940 whole entry, the tested form may be a part): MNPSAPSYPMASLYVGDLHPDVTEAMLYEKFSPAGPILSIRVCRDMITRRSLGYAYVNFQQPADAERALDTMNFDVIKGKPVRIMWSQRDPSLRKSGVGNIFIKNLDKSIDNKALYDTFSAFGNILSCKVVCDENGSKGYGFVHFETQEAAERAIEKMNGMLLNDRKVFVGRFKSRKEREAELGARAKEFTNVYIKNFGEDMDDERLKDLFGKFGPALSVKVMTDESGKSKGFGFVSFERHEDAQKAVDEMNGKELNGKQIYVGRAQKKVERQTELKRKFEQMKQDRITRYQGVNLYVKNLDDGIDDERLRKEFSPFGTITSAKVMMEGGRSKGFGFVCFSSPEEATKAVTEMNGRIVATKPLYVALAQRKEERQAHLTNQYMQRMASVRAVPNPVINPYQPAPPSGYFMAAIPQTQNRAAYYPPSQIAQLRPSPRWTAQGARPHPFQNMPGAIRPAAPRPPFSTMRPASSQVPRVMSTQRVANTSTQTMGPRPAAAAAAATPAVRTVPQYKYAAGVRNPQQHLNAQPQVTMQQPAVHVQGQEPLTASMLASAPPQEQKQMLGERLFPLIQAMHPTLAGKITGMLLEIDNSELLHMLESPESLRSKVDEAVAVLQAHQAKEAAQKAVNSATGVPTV

In the case of `O=C1/C(=N\c2cccc(O)c2)C(N2CCCCC2)=C(O)c2ccccc21`, the IC50 [1] is reported as > 66 µM (inactive) and the IC50 [2] is reported as > 66 µM (inactive).
With `Cc1cc(/C=C2\SC(=S)N(C)C2=O)c(C)n1-c1ccc(O)cc1` the EC50 [3] was 3.06 µM (active), the IC50 [4] was 0.345 µM (active) and the AC50 [5] was 0.492 µM (active). The AC50 [6] was 8.02 µM (active) and the EC50 [7] was > 92.5 µM (inactive).
In the case of `COC(=O)c1cccc(-c2ccc(C(c3c(C)n[nH]c3O)c3c(C)n[nH]c3O)o2)c1`, the IC50 [8] is reported as > 100 µM (inactive), the AC50 [9] is reported as 87.9 µM (active) and the IC50 [10] is reported as > 100 µM (inactive).
With `Cc1ccc(C(=O)NNc2cc(N3CCCC3)nc(N3CCCC3)n2)cc1` the IC50 [11] was > 100 µM (inactive), the EC50 [12] was 2.3 µM (active) and the IC50 [13] was 64 µM (not active). The IC50 [14] was > 99 µM (inactive), the IC50 [15] was 4.39 µM (active) and the IC50 [16] was 2.3 µM (active).
